Test results reported in ChEMBL document CHEMBL1201862, “PubChem BioAssay data set” (2004).
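48-hour exposure; five concentrations; linearly interpolated endpoints. The concentration for 50% growth inhibition is given as GI50.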 Active and inactive are the calls of the source. No stated cut-off is given here; in the data, active = GI50 up to about 1.1 µM and inactive = higher.

Key:
Assay in all cases: growth of human tumour cells (NCI), 48 h
[1] = tested on: M19-MEL
[2] = tested on: RXF 393
[3] = tested on: SF-539
[4] = tested on: SK-MEL-2
[5] = tested on: SK-MEL-28
[6] = tested on: TK-10
[7] = tested on: SW-620
[8] = tested on: SF-268
[9] = tested on: U-251
[10] = tested on: SNB-19
[11] = tested on: SN12C
[12] = tested on: NCI-H23
[13] = tested on: KM-20L2
[14] = tested on: HCC 2998
[15] = tested on: NCI-H522
[16] = tested on: LXFL 529
[17] = tested on: UO-31
[18] = tested on: UACC-62
[19] = tested on: LOX IMVI
[20] = tested on: HL-60
[21] = tested on: MOLT-4
[22] = tested on: SK-OV-3
[23] = tested on: HCT-116
[24] = tested on: DMS-114
[25] = tested on: OVCAR-8
[26] = tested on: DLD-1
[27] = tested on: RPMI-8226
[28] = tested on: 786-0
[29] = tested on: HCT-15
[30] = tested on: OVCAR-4
[31] = tested on: CCRF-CEM
[32] = tested on: SNB-78
[33] = tested on: ACHN
[34] = tested on: A549
[35] = tested on: SK-MEL-5
[36] = tested on: COLO 205
[37] = tested on: NCI-H226
[38] = tested on: HOP-18
[39] = tested on: Malme-3M
[40] = tested on: HT-29
[41] = tested on: SNB-75
[42] = tested on: HOP-62
[43] = tested on: KM12
[44] = tested on: UACC-257
[45] = tested on: OVCAR-3
[46] = tested on: A498
[47] = tested on: NCI-H460
[48] = tested on: SF-295
[49] = tested on: OVCAR-5
[50] = tested on: M14
[51] = tested on: CAKI-1
[52] = tested on: IGROV-1
[53] = tested on: K562
[54] = tested on: DMS-273

Measured: GI50

CCOc1ccccc1NC(=O)CSc1nnc(Cc2ccccc2)o1
inactive: [1] 34.5 µM | [2] 35.7 µM | [3] 25.5 µM | [4] 23.8 µM | [5] 71.4 µM | [6] 71.1 µM | [7] 16.6 µM | [8] 23.9 µM | [9] 20.2 µM | [10] 24 µM | [11] 26 µM | [12] 17.2 µM | [13] 38.1 µM | [14] 48.1 µM | [15] 18.2 µM | [16] 16.6 µM | [17] 23.9 µM | [18] 25.8 µM | [19] 15.5 µM | [20] 35.7 µM | [21] 23 µM | [22] 44.9 µM | [23] 30.6 µM | [24] 17.6 µM | [25] 27 µM | [26] 23.4 µM | [27] 35.6 µM | [28] 17.9 µM | [30] 26.4 µM | [31] 33.5 µM | [32] 81.5 µM | [33] 22.5 µM | [34] > 100 µM | [35] 19.3 µM | [36] 20.6 µM | [37] 25.2 µM | [38] 20.4 µM | [39] 15.6 µM | [40] 35.3 µM | [41] 56.1 µM | [42] > 100 µM | [43] 40.3 µM | [44] 29.7 µM | [45] 17.1 µM | [46] 66.7 µM | [47] 20.2 µM | [48] 98.4 µM | [49] 66.1 µM | [50] 21.9 µM | [51] 20.5 µM | [52] 47.5 µM | [53] 54.8 µM | [54] 22.7 µM
17.3 µM: [29]
